Measurements: patent publication US9533987B2, “Heterocyclic derivates” (KALVISTA PHARMACEUTICALS LIMITED, priority 2013, dated 2017)
pIC50: −log10 of the molar value. One block for each compound: values may come before it.

How the values were obtained:
Assay type in all cases: biochemical
Factor XIIa = Factor XIIa (Homo sapiens (Human), UniProt P00748); assay: Determination of enzyme selectivity, Factor XIIa; details: substrate at Km concentration
Protocol: Determination of Enzyme Selectivity
Human serine protease enzymes plasmin, thrombin, trypsin, Factor Xa and Factor XIIa were assayed for enzymatic activity using an appropriate fluorogenic substrate. Protease activity was measured by monitoring the accumulation of liberated fluorescence from the substrate over 5 minutes. The linear rate of fluorescence increase per minute was expressed as percentage (%) activity. The Km for the cleavage of each substrate was determined by standard transformation of the Michaelis-Menten equation.

Human KLK1 = Human KLK1 (Homo sapiens (Human), UniProt P06870); assay: Determination of the IC50 for KLK1 (fluorogenic substrate H-DVal-Leu-Arg-AFC); details: 37° C.
Sequence of Human KLK1 (P06870 25-262): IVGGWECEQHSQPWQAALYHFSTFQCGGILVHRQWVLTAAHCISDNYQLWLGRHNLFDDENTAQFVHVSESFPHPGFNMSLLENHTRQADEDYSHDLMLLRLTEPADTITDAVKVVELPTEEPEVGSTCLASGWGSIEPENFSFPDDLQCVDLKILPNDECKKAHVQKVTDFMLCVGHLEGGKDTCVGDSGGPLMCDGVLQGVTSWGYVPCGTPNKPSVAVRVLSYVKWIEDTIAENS
Protocol: Determination of the IC50 for KLK1
(§1) Human KLK1 (Callbiochem) was incubated at 37° C. with the fluorogenic substrate H-DVal-Leu-Arg-AFC and various concentrations of the test compound. Residual enzyme activity (initial rate of reaction) was determined by measuring the change in […] at 410 nm and the IC50 value for the test compound was determined.

Human plasma kallikrein = Human plasma kallikrein (Homo sapiens (Human), UniProt P03952); assay: Determination of the IC50 for plasma kallikrein (fluorogenic substrate H-DPro-Phe-Arg-AFC); details: 37° C., read-out: IC50 (human PKaI)
Sequence of Human plasma kallikrein (P03952 391-638): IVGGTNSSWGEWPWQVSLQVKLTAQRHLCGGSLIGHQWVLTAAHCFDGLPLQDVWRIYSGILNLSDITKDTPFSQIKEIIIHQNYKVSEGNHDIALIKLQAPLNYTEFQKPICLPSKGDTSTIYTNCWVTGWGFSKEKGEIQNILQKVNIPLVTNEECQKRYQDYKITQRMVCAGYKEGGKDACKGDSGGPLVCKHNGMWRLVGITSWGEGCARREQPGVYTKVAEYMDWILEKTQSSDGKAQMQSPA
Sequence of Human plasma kallikrein (P03952 20-390 partner): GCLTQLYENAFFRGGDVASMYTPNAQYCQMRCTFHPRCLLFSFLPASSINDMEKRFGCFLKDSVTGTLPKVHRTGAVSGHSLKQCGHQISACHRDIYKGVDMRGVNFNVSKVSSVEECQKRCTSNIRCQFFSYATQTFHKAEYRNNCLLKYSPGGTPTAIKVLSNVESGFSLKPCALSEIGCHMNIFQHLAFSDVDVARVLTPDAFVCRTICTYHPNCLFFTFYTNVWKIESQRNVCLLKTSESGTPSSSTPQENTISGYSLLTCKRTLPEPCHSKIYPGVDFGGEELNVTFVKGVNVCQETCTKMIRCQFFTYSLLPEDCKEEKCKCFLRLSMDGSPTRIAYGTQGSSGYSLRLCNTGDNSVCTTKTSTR
Protocol: Determination of the IC50 for Plasma Kallikrein
as §1, with “plasma kallikrein (Protogen)” for “KLK1 (Callbiochem)”, “H-DPro-Phe-Arg-AFC” for “H-DVal-Leu-Arg-AFC”

Sequence of Factor XIIa (P00748 373-615): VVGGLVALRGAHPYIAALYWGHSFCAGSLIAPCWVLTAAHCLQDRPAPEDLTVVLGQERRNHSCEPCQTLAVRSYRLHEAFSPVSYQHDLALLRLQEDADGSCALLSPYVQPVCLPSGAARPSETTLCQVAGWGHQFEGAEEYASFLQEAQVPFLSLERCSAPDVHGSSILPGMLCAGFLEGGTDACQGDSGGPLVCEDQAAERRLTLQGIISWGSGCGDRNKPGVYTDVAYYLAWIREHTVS

SMILES: Cc1cnn(Cc2ccc(Cn3nc(C)c(C(=O)NCc4ccc5c(N)nccc5c4)c3C)cc2)c1 [Example 34, 3,5-Dimethyl-1-[4-(4-methyl-pyrazol-1-ylmethyl)-benzyl]-1H-pyrazole-4-carboxylic acid (1-amino-isoquinolin-6-ylmethyl)-amide]
- IC50 (Factor XIIa): > 40000 nM
- pIC50 (Human KLK1): 4.74
- pIC50 (Human plasma kallikrein): 6.85

SMILES: Nc1nccc2cc(CNC(=O)c3cnn(CCc4ccc5c(c4)OCCO5)c3)ccc12 [Example 45, 1-[2-(2,3-Dihydro-benzo[1,4]dioxin-6-yl)-ethyl]-1H-pyrazole-4-carboxylic acid (1-amino-isoquinolin-6-ylmethyl)-amide]
- IC50 (Factor XIIa): > 40000 nM
- pIC50 (Human KLK1): 4.73
- pIC50 (Human plasma kallikrein): 5.51

SMILES: Nc1nccc2cc(CNC(=O)c3cnn(Cc4cccc(Oc5ccccc5)n4)c3)ccc12 [Example 47, 1-(6-Phenoxy-pyridin-2-ylmethyl)-1H-pyrazole-4-carboxylic acid (1-amino-isoquinolin-6-ylmethyl)-amide]
- IC50 (Factor XIIa): > 40000 nM
- pIC50 (Human KLK1): 4.80
- pIC50 (Human plasma kallikrein): 5.69

SMILES: Nc1nccc2cc(CNC(=O)c3cnn(Cc4cccc(Oc5ncccc5F)c4)c3)ccc12 [Example 48, 1-[3-(3-Fluoro-pyridin-2-yloxy)-benzyl]-1H-pyrazole-4-carboxylic acid (1-amino-isoquinolin-6-ylmethyl)-amide]
- IC50 (Factor XIIa): > 40000 nM
- pIC50 (Human KLK1): 5.36
- pIC50 (Human plasma kallikrein): 6.09

SMILES: Nc1nccc2cc(CNC(=O)c3cnn(Cc4ccc(Oc5ccccn5)cc4)c3)ccc12 [Example 49, 1-[4-(Pyridin-2-yloxy)-benzyl]-1H-pyrazole-4-carboxylic acid (1-amino-isoquinolin-6-ylmethyl)-amide]
- IC50 (Factor XIIa): > 40000 nM
- pIC50 (Human KLK1): 5.09
- pIC50 (Human plasma kallikrein): 6.73

SMILES: Nc1nccc2cc(CNC(=O)c3cnn(Cc4ccc(COc5cccc(F)n5)cc4)c3)ccc12 [Example 50, 1-[4-(6-Fluoro-pyridin-2-yloxymethyl)-benzyl]-1H-pyrazole-4-carboxylic acid (1-amino-isoquinolin-6-ylmethyl)-amide]
- IC50 (Factor XIIa): > 40000 nM
- pIC50 (Human KLK1): < 4.40
- pIC50 (Human plasma kallikrein): 6.69

SMILES: Nc1nccc2cc(CNC(=O)c3cnn(Cc4ccnc(N5CCCC5)c4)c3C(F)(F)F)ccc12 [Example 51, 1-(2-Pyrrolidin-1-yl-pyridin-4-ylmethyl)-5-trifluoromethyl-1H-pyrazole-4-carboxylic acid (1-amino-isoquinolin-6-ylmethyl)-amide]
- IC50 (Factor XIIa): > 40000 nM
- pIC50 (Human KLK1): 4.93
- pIC50 (Human plasma kallikrein): 6.24

SMILES: Nc1nccc2cc(CNC(=O)c3cnn(Cc4cc5cc(OC(F)(F)F)ccc5[nH]4)c3)ccc12 [Example 52, 1-(5-Trifluoromethoxy-1H-indol-2-ylmethyl)-1H-pyrazole-4-carboxylic acid (1-amino-isoquinolin-6-ylmethyl)-amide]
- IC50 (Factor XIIa): > 40000 nM
- pIC50 (Human KLK1): < 4.40
- pIC50 (Human plasma kallikrein): 6.52

Results, then the compound that gave them:

- IC50 (Factor XIIa): > 10000 nM
- pIC50 (Human KLK1): < 5.00
- pIC50 (Human plasma kallikrein): 7.20
SMILES: CCn1c(C(=O)NCc2ccc3c(N)nccc3c2)cc(C)c1Cc1ccc(Cn2cc(C)cn2)cc1 [Example 28, 1-Ethyl-4-methyl-5-[4-(4-methyl-pyrazol-1-ylmethyl)-benzyl]-1H-pyrrole-2-carboxylic acid (1-amino-isoquinolin-6-ylmethyl)-amide]

- IC50 (Factor XIIa): > 10000 nM
- pIC50 (Human KLK1): 5.24
- pIC50 (Human plasma kallikrein): 5.83
SMILES: CCn1c(C(=O)NCc2ccc3c(N)nccc3c2)cc(C)c1Cc1ccc(N2CCCC2)nc1 [Example 30, 1-Ethyl-4-methyl-5-(6-pyrrolidin-1-yl-pyridin-3-ylmethyl)-1H-pyrrole-2-carboxylic acid (1-amino-isoquinolin-6-ylmethyl)-amide]

- IC50 (Factor XIIa): > 10000 nM
- pIC50 (Human KLK1): < 5.00
- pIC50 (Human plasma kallikrein): 8.55
SMILES: Cc1cnn(Cc2ccc(Cn3cc(C(=O)NCc4ccc5c(N)nccc5c4)nn3)cc2)c1 [Example 33, 1-[4-(4-Methyl-pyrazol-1-ylmethyl)-benzyl]-1H-[1,2,3]triazole-4-carboxylic acid (1-amino-isoquinolin-6-ylmethyl)-amide]

- IC50 (Factor XIIa): > 10000 nM
- pIC50 (Human KLK1): < 5.00
- pIC50 (Human plasma kallikrein): 8.43
SMILES: Cc1cnn(Cc2ccc(Cn3cc(C(=O)NCc4ccc5c(N)nccc5c4)c(-c4ccccc4)n3)cc2)c1 [Example 35, 1-[4-(4-Methyl-pyrazol-1-ylmethyl)-benzyl]-3-phenyl-1H-pyrazole-4-carboxylic acid (1-amino-isoquinolin-6-ylmethyl)-amide]

- IC50 (Factor XIIa): > 10000 nM
- pIC50 (Human KLK1): 5.45
- pIC50 (Human plasma kallikrein): 9.17
SMILES: Cc1cnn(Cc2ccc(Cn3cc(C(=O)NCc4ccc5c(N)nccc5c4)c(N)n3)cc2)c1 [Example 37, 3-Amino-1-[4-(4-methyl-pyrazol-1-ylmethyl)-benzyl]-1H-pyrazole-4-carboxylic acid (1-amino-isoquinolin-6-ylmethyl)-amide]

- IC50 (Factor XIIa): > 10000 nM
- pIC50 (Human KLK1): 5.11
- pIC50 (Human plasma kallikrein): 8.90
SMILES: COCc1nn(Cc2ccc(Cn3cc(C)cn3)cc2)cc1C(=O)NCc1ccc2c(N)nccc2c1 [Example 38, 3-Methoxymethyl-1-[4-(4-methyl-pyrazol-1-ylmethyl)-benzyl]-1H-pyrazole-4-carboxylic acid (1-amino-isoquinolin-6-ylmethyl)-amide]

- IC50 (Factor XIIa): > 10000 nM
- pIC50 (Human KLK1): 5.09
- pIC50 (Human plasma kallikrein): 8.77
SMILES: Cc1cnn(Cc2ccc(Cn3cc(C(=O)NCc4ccc5c(N)nccc5c4)c(C(F)F)n3)cc2)c1 [Example 39, 3-Difluoromethyl-1-[4-(4-methyl-pyrazol-1-ylmethyl)-benzyl]-1H-pyrazole-4-carboxylic acid (1-amino-isoquinolin-6-ylmethyl)-amide]

- IC50 (Factor XIIa): > 10000 nM
- pIC50 (Human KLK1): 5.15
- pIC50 (Human plasma kallikrein): 8.41
SMILES: Cc1cc(C(=O)NCc2ccc3c(N)nccc3c2)c(C)n1Cc1ccc(Cn2ccccc2=O)cc1 [Example 44, 2,5-Dimethyl-1-[4-(2-oxo-2H-pyridin-1-ylmethyl)-benzyl]-1H-pyrrole-3-carboxylic acid (1-amino-isoquinolin-6-ylmethyl)-amide]

- IC50 (Factor XIIa): > 4000 nM
- pIC50 (Human KLK1): 4.74
- pIC50 (Human plasma kallikrein): 7.33
SMILES: Nc1nccc2cc(CNC(=O)c3cn(Cc4ccnc(N5CCCC5)c4)nc3C(F)(F)F)ccc12 [Example 54, 1-(2-Pyrrolidin-1-yl-pyridin-4-ylmethyl)-3-trifluoromethyl-1H-pyrazole-4-carboxylic acid (1-amino-isoquinolin-6-ylmethyl)-amide]

- IC50 (Factor XIIa): > 10000 nM
- pIC50 (Human KLK1): 5.42
- pIC50 (Human plasma kallikrein): 7.10
SMILES: CCOc1ccc(Cn2cc(C(=O)NCc3ccc4c(N)nccc4c3)c(C(F)(F)F)n2)cn1 [Example 55, 1-(6-Ethoxy-pyridin-3-ylmethyl)-3-trifluoromethyl-1H-pyrazole-4-carboxylic acid (1-amino-isoquinolin-6-ylmethyl)-amide]

- IC50 (Factor XIIa): > 10000 nM
- pIC50 (Human KLK1): < 5.00
- pIC50 (Human plasma kallikrein): 7.14
SMILES: Nc1nccc2cc(CNC(=O)c3cn(Cc4ccnc(N5CCC(F)(F)C5)c4)nc3C(F)(F)F)ccc12 [Example 56, 1-[2-(3,3-Difluoro-pyrrolidin-1-yl)-pyridin-4-ylmethyl]-3-trifluoromethyl-1H-pyrazole-4-carboxylic acid (1-amino-isoquinolin-6-ylmethyl)-amide]

- IC50 (Factor XIIa): > 10000 nM
- pIC50 (Human KLK1): < 5.00
- pIC50 (Human plasma kallikrein): 7.83
SMILES: Nc1nccc2cc(CNC(=O)c3cn(Cc4ccc(N5CCC(F)(F)C5)nc4)nc3C(F)(F)F)ccc12 [Example 57, 1-[6-(3,3-Difluoro-pyrrolidin-1-yl)-pyridin-3-ylmethyl]-3-trifluoromethyl-1H-pyrazole-4-carboxylic acid (1-amino-isoquinolin-6-ylmethyl)-amide]
